Values of other authors as cited in US6683094B2, “Antihistaminic piperidine derivatives and intermediates for the preparation thereof” (Aventis Pharmaceuticals Inc., priority 1998, dated 2004).

Conditions: to two primary metabolites (fexofenadine and an inactive dealkylated metabolite)

first pass metabolism: 99%
SMILES: CC(C)(C)c1ccc(C(O)CCCN2CCC(C(O)(c3ccccc3)c3ccccc3)CC2)cc1 (stereo not drawn) [Terfenadine, α-[4-(1,1-dimethylethyl)phenyl]-4-(hydroxydiphenylmethyl)-1-piperidinebutanol]
